These results are taken from BindingDB's records for doi:10.1016/S0960-894X(00)80067-0 (1994).

The nature of the experiment: Compound was tested for inhibition of partially purified squalene epoxidase.
`CCN(Cc1cccc(OCc2cc(-c3cccs3)cs2)c1)c1ccc(C(=O)c2ccc(CCl)cc2)cc1` [(4-{[3-([2,3']Bithiophenyl-5'-ylmethoxy)-benzyl]-ethyl-amino}-phenyl)-(4-chloromethyl-phenyl)-methanone]: the IC50 (in general, the concentration at which inhibition is half-maximal) turned out to be 500 µM.
`CCN(Cc1cccc(OCc2cc(-c3cccs3)cs2)c1)c1cc(O)cc(C2(C(F)(F)F)N=N2)c1` [3-{[3-([2,3']Bithiophenyl-5'-ylmethoxy)-benzyl]-ethyl-amino}-5-(3-trifluoromethyl-3H-diazirin-3-yl)-phenol] returned an IC50 of 500 µM.
Compound `CCN(CC=CC#CC(C)(C)C)Cc1cccc(OCc2cc(CO)cc(C3(C(F)(F)F)N=N3)c2)c1` [[3-(3-{[((E)-6,6-Dimethyl-hept-2-en-4-ynyl)-ethyl-amino]-methyl}-phenoxymethyl)-5-(3-trifluoromethyl-3H-diazirin-3-yl)-phenyl]-methanol] displayed an IC50 of 500 µM.
